What was measured:
Pseudomonas aeruginosa [1] = experiment: Log10 reduction of viable P. aeruginosa in PBS after exposure to biocide (Example 8); assay type: cell-based; conditions: average of three
Protocol: The efficacy of dimethyl monochlorourea (DMCU) as a biocide, as synthesized in Example 5, was tested against the bacterium Pseudomonas aeruginosa. The Hach DPD chlorine test (Hach Company, Loveland, Colo.) was used to measure the total available chlorine concentrations of each biocide tested. Concentrations are reported in units of milligrams per liter as Cl2. P. aeruginosa was grown overnight in Trypticase Soy Broth at 37° C. The culture was split into aliquots of equal volume and suspended in physiologically buffered saline (PBS). […] The cultures were then evaluated by measuring viable cell counts after exposure to the biocides.

[2] = Stability of dimethylchlorourea aqueous solutions at different pH and temperature by UV-Vis Spectroscopy; assay type: physicochemical
Source text: The stability of dimethylchlorourea was also examined under a variety of different conditions including pH and temperature. […] In the following table the initial concentration C0, the final concentration Cf, the final time tf and the half life t½, are given.

[3] = Effect of pH on stability of monochlorourea in D2O by 13C NMR; assay type: physicochemical
Source text: The effect of pH on the stability of monochlorourea was significant. Carbon 13 labeled urea was used to examine the stability of the products overnight in D2O. […] However, completely acidifying all the solutions to a pH of 2.5 did have a significant effect on both the yield and the stability of the product.

Pseudomonas aeruginosa [4] = experiment: Viable cell counts of P. aeruginosa in PBS after 60 minutes exposure to biocide (Example 6); assay type: cell-based; conditions: average of three
Protocol: The efficacy of monochlorourea as a biocide, as synthesized in Example 1, was tested against the bacterium Pseudomonas aeruginosa. The Hach DPD chlorine test (Hach Company, Loveland, Colo.) was used to measure the total available chlorine concentrations of each biocide tested. Concentrations are reported in units of milligrams per liter as Cl2. P. aeruginosa was grown overnight in Trypticase Soy Broth at 37° C. The culture was split into aliquots of equal volume, suspended in physiologically buffered saline (PBS). In this example, the cultures were exposed to […], 5.0 mg/L, 10.0 mg/L, and 15.0 mg/L of biocide for 60 minutes. The cultures were then evaluated by measuring viable cell counts after exposure to the biocides.

[5] = Free vs. total chlorine (Hach DPD) of 1000 ppm solutions in synthetic hard water; assay type: physicochemical; conditions: synthetic hard water 250 ppm hardness, 35° C.
Protocol: Differences exist between monochlorourea and sodium hypochlorite, namely, sodium hypochlorite is a free chlorine generating biocide while monochlorourea is not. Free and total chlorine are measured using the DPD reagents from the Hach Company. The test is a colorimetric test in which more intense color development results as more oxidizing chlorine is present in the sample. The rate at which the dye reacts with the oxidizing chemical depends on whether the chlorine is free or bound. Total chlorine includes both free and bound chlorine.
The rate at which the dye reacts with total chlorine is accelerated by the addition of iodide to the test. This differentiates the free and total chlorine. The iodide reacts rapidly with bound oxidizing chlorine to form iodine and chloride. The iodine, a free oxidizing halogen, reacts very rapidly with the DPD dye.
One thousand ppm (as total Cl2) solutions of monochlorourea and sodium hypochlorite were prepared in synthetic hard water with 250 ppm hardness. Total and free chlorine readings were taken at 0 minutes, 30 minutes, 2 hours, and 4 hours. Untreated hard water solutions were used as blanks. The samples were stored at 35° C.+/−2° C. with mild stirring. pH values are provided as a reference points for the conditions of the chlorine species at the various test times.
Table 3 compares duplicate samples of sodium hypochlorite and monochlorourea. Significant differences exist between the free and total chlorine values of these chemicals. The release of free chlorine from monochlorourea is an energetically unfavorable reaction. Monochlorourea is a combined chlorine species that functions to kill bacteria not as a donor of free chlorine, but as a biocide itself.
Made-up 1 Liter sample of synthetic hard water with 250 ppm hardness.
Took 100 mL aliquots and set up duplicate samples of biocides at least 1,000 ppm based on total Chlorine readings.
Monitored pH, free chlorine and total chlorines at timed intervals of—0 min, 30 min, 2 hours, and 4 hours,
Monitored un-treated (blank) hard water at time 0 to serve as baseline.
Between sampling stored all samples in 35° C.+/−2° C. Heater/shaker with mild stirring.

P. aeruginosa = experiment: Viability of P. aeruginosa inoculated in paper mill process water, plated after 60 minutes; assay type: cell-based, Pseudomonas aeruginosa; conditions: papermill process water, average of three
Protocol: Paper mill process water samples were collected from a paper mill producing super calendered paper Samples were inoculated with P. aeruginosa, and then dosed with monochlorourea and sodium hypochlorite and plated after 60 minutes.

[6] = Stability in the presence of chlorine demand (0.1× nutrient broth), total chlorine by Hach DPD; assay type: physicochemical; conditions: 0.1× nutrient broth, initial 5 ppm chlorine, 37° C.
Protocol: This can be seen in Table 4 below. 20 mL aliquots of a 0.1× nutrient broth were used and the active species added such that the initial concentration of each was equivalent to 5 ppm chlorine as measured by the Hach. To prepare the nutrient broth Difco Nutrient Broth (8 grams) was dissolved in 1 L of deionized water, and subsequently diluted to 0.1× of the initial concentration prior to being autoclaved at 121° C. for 15 minutes. 100 mL solutions of each of the actives were made, and the concentration was measured using standard Hach test procedures on a BetzDearborn DR 2010 Spectrophotometer. At each time point a 1:10 dilution of the solution in DI water was made and placed in the spectrophotometer cell. Hach Permachem DPD Total Chlorine Reagent was added and the cell was placed into the spectrophotometer. The ppm of Cl2 was measured at 0, 1, 3, 6, 24, and 48 hours. A fresh dilution was made at each time point, if necessary, and the bottles of solution were placed in a shaking incubator at 37° C. in between runs. Dimethyl monochlorourea is notated as DMCU. Bis-hydroxymethyl chlorourea is BHMCU.

[7] = Time = 2 hours, listed as MCU-1
[8] = Time = 2 hours, listed as MCU-2
[9] = Time = 4 hours, listed as MCU-1
[10] = Time = 4 hours, listed as MCU-2
[11] = Time = 30 min, listed as Bleach-1
[12] = Time = 30 min, listed as Bleach-2
[13] = Time = 2 hours, listed as Bleach-1
[14] = Time = 2 hours, listed as Bleach-2
[15] = Time = 4 hours, listed as Bleach-1
[16] = Time = 4 hours, listed as Bleach-2

CNC(=O)N(C)Cl [DMCU, N-chloro-N,N′-dimethylurea]
log10 reduction of viable cfu/mL (LR) (Pseudomonas aeruginosa [1]; 0.3 mg/L): 0.45 log10 | log10 reduction of viable cfu/mL (LR) (Pseudomonas aeruginosa [1]; 0.9 mg/L): 1.49 log10 | log10 reduction of viable cfu/mL (LR) (Pseudomonas aeruginosa [1]; 1.5 mg/L): 3.99 log10 | half life t½ ([2]; 50 ° C., pH 3): 4 days | final concentration Cf ([2]; 50 ° C., pH 3, C0 575 ppm, tf 1 Days): 491 ppm | half life t½ ([2]; 50 ° C., pH 5): 82 days | final concentration Cf ([2]; 50 ° C., pH 5, C0 576 ppm, tf 3 Days): 561 ppm | half life t½ ([2]; 50 ° C., pH 12): 0.417 days | final concentration Cf ([2]; 50 ° C., pH 12, C0 478 ppm, tf 6 Hours): 315 ppm | half life t½ ([2]; 75 ° C., pH 3): 0.75 days | final concentration Cf ([2]; 75 ° C., pH 3, C0 576 ppm, tf 24 Hours): 231 ppm | half life t½ ([2]; 75 ° C., pH 7): 14 days | final concentration Cf ([2]; 75 ° C., pH 7, C0 590 ppm, tf 1 Days): 562 ppm | half life t½ ([2]; 75 ° C., pH 12): 0.17 days | final concentration Cf ([2]; 75 ° C., pH 12, C0 423 ppm, tf 24 Hours): 4 ppm | half life t½ ([2]; RT, pH 2): 41 days | final concentration Cf ([2]; RT, pH 2, C0 393 ppm, tf 34 Days): 220 ppm | half life t½ ([2]; RT, pH 3): 54 days | final concentration Cf ([2]; RT, pH 3, C0 577 ppm, tf 28 Days): 402 ppm | half life t½ ([2]; RT, pH 5): 84 days | final concentration Cf ([2]; RT, pH 5, C0 603 ppm, tf 34 Days): 456 ppm | half life t½ ([2]; RT, pH 7): 104 days | final concentration Cf ([2]; RT, pH 7, C0 590 ppm, tf 33 Days): 474 ppm | half life t½ ([2]; RT, pH 9): 106 days | final concentration Cf ([2]; RT, pH 9, C0 589 ppm, tf 33 Days): 475 ppm | half life t½ ([2]; RT, pH 12): 2 days | final concentration Cf ([2]; RT, pH 12, C0 423 ppm, tf 1 Days): 280 ppm | half-life ([2]; aqueous solution, acidic and basic conditions at room temperature, read-out: half lives): 2 to 100 days

NC(=O)NCl [MCU, N-chlorourea]
Stability by 13C NMR ([3]; acidic conditions (pH of 2.5), overnight): no indication by ^13C NMR of any decomposition | Stability by 13C NMR ([3]; basic conditions, 12 hours): no peak in the ^13C NMR from chlorourea could be detected | log10 of viable cfu/mL remaining after exposure (Pseudomonas aeruginosa [4]; 5.0 mg/L as Cl2, 60 minutes): 4.0 log10 cfu/mL | log10 of viable cfu/mL remaining after exposure (Pseudomonas aeruginosa [4]; 10.0 mg/L as Cl2, 60 minutes): 2.7 log10 cfu/mL | log10 of viable cfu/mL remaining after exposure (Pseudomonas aeruginosa [4]; 15.0 mg/L as Cl2, 60 minutes): 2.3 log10 cfu/mL | Free Cl ([5]; Time = 0): 0 ppm | Tot Cl ([5]; Time = 0, listed as MCU-1): 1620 ppm | Tot Cl ([5]; Time = 0, listed as MCU-2): 1190 ppm | Free Cl ([5]; Time = 30 min, listed as MCU-1): 10 ppm | Tot Cl ([5]; Time = 30 min, listed as MCU-1): 1500 ppm | Free Cl ([5]; Time = 30 min, listed as MCU-2): 20 ppm | Tot Cl ([5]; Time = 30 min, listed as MCU-2): 1210 ppm | Free Cl [5, 7]: 10 ppm | Tot Cl [5, 7]: 1490 ppm | Free Cl [5, 8]: 30 ppm | Tot Cl [5, 8]: 1120 ppm | Free Cl [5, 9]: 10 ppm | Tot Cl [5, 9]: 1230 ppm | Free Cl [5, 10]: 20 ppm | Tot Cl [5, 10]: 1000 ppm | log10 of viable cfu/mL (P. aeruginosa; 1.0 mg/l): 9.9 log10 cfu/mL | log10 of viable cfu/mL (P. aeruginosa; 3.0 mg/l): 4.3 log10 cfu/mL | log10 of viable cfu/mL (P. aeruginosa; 5.0 mg/l): 3.2 log10 cfu/mL | log10 of viable cfu/mL (P. aeruginosa; 10.0 mg/l): 3.1 log10 cfu/mL

[Na+].[O-]Cl [NaOCl, Sodium Hypochlorite]
log10 reduction of viable cfu/mL (LR) (Pseudomonas aeruginosa [1]; 1 mg/L): 5.3 log10 | log10 reduction of viable cfu/mL (LR) (Pseudomonas aeruginosa [1]; 3 mg/L): 5.4 log10 | log10 reduction of viable cfu/mL (LR) (Pseudomonas aeruginosa [1]; 5 mg/L): 6.7 log10 | log10 of viable cfu/mL remaining after exposure (Pseudomonas aeruginosa [4]; 5.0 mg/L as Cl2, 60 minutes): 9.7 log10 cfu/mL | log10 of viable cfu/mL remaining after exposure (Pseudomonas aeruginosa [4]; 10.0 mg/L as Cl2, 60 minutes): 9.1 log10 cfu/mL | log10 of viable cfu/mL remaining after exposure (Pseudomonas aeruginosa [4]; 15.0 mg/L as Cl2, 60 minutes): 4.4 log10 cfu/mL | Free Cl ([5]; Time = 0, listed as Bleach-1): 900 ppm | Tot Cl ([5]; Time = 0, listed as Bleach-1): 950 ppm | Free Cl ([5]; Time = 0, listed as Bleach-2): 950 ppm | Tot Cl ([5]; Time = 0, listed as Bleach-2): 1060 ppm | Free Cl [5, 11]: 860 ppm | Tot Cl [5, 11]: 890 ppm | Free Cl [5, 12]: 880 ppm | Tot Cl [5, 12]: 1020 ppm | Free Cl [5, 13]: 810 ppm | Tot Cl [5, 13]: 920 ppm | Free Cl [5, 14]: 840 ppm | Tot Cl [5, 14]: 1010 ppm | Free Cl [5, 15]: 840 ppm | Tot Cl [5, 15]: 940 ppm | Free Cl [5, 16]: 950 ppm | Tot Cl [5, 16]: 1040 ppm | log10 of viable cfu/mL (P. aeruginosa; 1.0 mg/l): 9.9 log10 cfu/mL | log10 of viable cfu/mL (P. aeruginosa; 3.0 mg/l): 9.8 log10 cfu/mL | log10 of viable cfu/mL (P. aeruginosa; 5.0 mg/l): 8.7 log10 cfu/mL | log10 of viable cfu/mL (P. aeruginosa; 10.0 mg/l): 4.5 log10 cfu/mL | Stability: total chlorine remaining relative to initial ([6]; 0 hr): 100% | Stability: total chlorine remaining relative to initial ([6]; 3 hrs): 22% | Stability: total chlorine remaining relative to initial ([6]; 6 hrs): 6% | Stability: total chlorine remaining relative to initial ([6]; 24 hrs): 2% | Stability: total chlorine remaining relative to initial ([6]; 48 hrs): 1%

NCl [monochloramine]
Stability: total chlorine remaining relative to initial ([6]; 0 hr): 100% | Stability: total chlorine remaining relative to initial ([6]; 3 hrs): 24% | Stability: total chlorine remaining relative to initial ([6]; 6 hrs): 6% | Stability: total chlorine remaining relative to initial ([6]; 24 hrs): 2% | Stability: total chlorine remaining relative to initial ([6]; 48 hrs): 1%

— patent US8420012B2, “Use of monochlorourea to treat industrial waters” (Hercules Incorporated, priority 2009, dated 2013)
